Test [1] concerns the target wild-type un-phosphorylated FGFR3 protein (Homo sapiens, UniProt P22607). As to the kind of experiment: FGFR Enzymatic Assay (FRET peptide phosphorylation). The class given is biochemical. As to conditions: pre-incubated for 4 hours.
Description: The inhibitor potency of the exemplified compounds was determined in an enzyme discontinuous assay that measures peptide phosphorylation using FRET measurements to detect product formation. Inhibitors were serially diluted in DMSO and a volume of 0.2 μL was transferred to the wells of a 384-well plate. A 5 μL/well volume of enzyme isoforms of FGFR (-1, -2, -3 wild-type and mutant isoforms, -4) including phosphorylated and un-phosphorylated proteins diluted in assay buffer (50 mM HEPES, 10 mM MgCl2, 1 mM EGTA, 0.01% Tween-20, 5 mM DTT, pH 7.5) was added to the plate and pre-incubated with inhibitor for 5 to 15 minutes at ambient temperature. Appropriate controls (enzyme blank and enzyme with no inhibitor) were included on the plate. The reaction was initiated by the addition of a 5 μL/well volume containing both biotinylated [sequence] peptide substrate (SEQ ID NO: 1) and ATP in assay buffer. The 10 μL/well reaction concentration of the peptide substrate was 500 nM whereas the ATP concentration was maintained near or below the ATP Km. The ATP Km values were pre-determined in a separate series of experiments. The reaction plate was incubated at 25° C. for 1 hr and the reactions were ended with the addition of 5 μL/well of quench solution (50 mM Tris, 150 mM NaCl, 0.5 mg/mL BSA, pH 7.8; 45 mM EDTA, 600 nM staurosporin, with Perkin Elmer Lance Reagents at 3.75 nM Eu-antibody PY20 and 180 nM APC-Streptavidin). The plate was allowed to equilibrate for ˜10 minutes at ambient temperature before scanning on a PheraStar plate reader (BMG Labtech) instrument.
Either GraphPad prism or XLfit was used to analyze the data. The IC50 values were derived by fitting the data to a four parameter logistic equation producing a sigmoidal dose-response curve with a variable Hill coefficient. Prism equation: Y=Bottom+(Top−Bottom)/(1+10^((Log IC50−X)*Hill slope)); XLfit equation: Y=(A+((B−A)/(1+((X/C)^D)))) where X is the logarithm of inhibitor concentration and Y is the response.
The next test concerns RT-112/84 cell line. As to the kind of experiment: Luminescent Viability Assay (CellTiter-Glo). Particulars: RT-112/84 cell line (bladder, FGFR3-TACC3), 3 days. The class given is cell-based. As to the method: RT112 cells (cell lines and genetic profiles further detailed in Table 2) were purchased from ATCC (Manassas, VA) and maintained in RPMI, 10% FBS (Gibco/Life Technologies). To measure the effect of test compounds on the viability of cells, the cells were plated with RPMI 10% FBS (5×10^3 cells/well/in 50 μL) into black 96-well Greiner polystyrene in the presence or absence of 50 μL of a concentration range of test compounds. After 3 days, 100 μL of CellTiter-Glo Reagent (Promega) was added. Luminescence was read with a TopCount (PerkinElmer). IC50 determination was performed by fitting the curve of percent inhibition versus the log of the inhibitor concentration using the GraphPad Prism 5.0 software.
(In general: Cellular ATP, detected with luciferase, serves as a proxy for viable cell number.)

The source of these data is patent US12428420B2, “Tricyclic heterocycles as FGFR inhibitors” (Incyte Corporation, priority 2021, dated 2025).

As a reminder, the IC50 is the point on the concentration scale where inhibition reaches its midpoint.

Chain of wild-type un-phosphorylated FGFR3 protein (P22607 23-806): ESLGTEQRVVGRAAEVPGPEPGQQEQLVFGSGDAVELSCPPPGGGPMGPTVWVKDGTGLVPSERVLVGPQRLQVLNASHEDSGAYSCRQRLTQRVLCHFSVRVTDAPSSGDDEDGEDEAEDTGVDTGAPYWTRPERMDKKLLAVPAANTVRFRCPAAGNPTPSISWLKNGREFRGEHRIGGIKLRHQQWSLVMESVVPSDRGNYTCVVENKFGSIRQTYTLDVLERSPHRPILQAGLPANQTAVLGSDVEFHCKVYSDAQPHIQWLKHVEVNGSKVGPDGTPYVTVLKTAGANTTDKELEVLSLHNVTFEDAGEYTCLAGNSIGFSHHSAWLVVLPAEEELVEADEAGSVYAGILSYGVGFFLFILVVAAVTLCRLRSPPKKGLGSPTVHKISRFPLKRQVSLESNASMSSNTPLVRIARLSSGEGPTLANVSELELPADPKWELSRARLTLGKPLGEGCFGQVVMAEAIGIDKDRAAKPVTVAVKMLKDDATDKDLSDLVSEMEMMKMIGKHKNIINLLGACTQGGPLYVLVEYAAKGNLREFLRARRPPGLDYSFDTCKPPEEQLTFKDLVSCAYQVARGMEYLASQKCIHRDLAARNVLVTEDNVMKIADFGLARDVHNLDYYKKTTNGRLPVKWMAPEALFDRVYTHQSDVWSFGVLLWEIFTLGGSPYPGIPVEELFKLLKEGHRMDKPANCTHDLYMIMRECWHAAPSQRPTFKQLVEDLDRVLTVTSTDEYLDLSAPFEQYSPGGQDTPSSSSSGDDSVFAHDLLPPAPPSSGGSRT

As for `C[C@H](CO)n1cc(-c2cnc3ccn4c(CO)c(-c5c(Cl)cccc5Cl)nc4c3c2)cn1` [Example 24, (R)-2-(4-(2-(2,6-Dichlorophenyl)-3-(hydroxymethyl)imidazo[2,1-f][1,6]naphthyridin-9-yl)-1H-pyrazol-1-yl)propan-1-ol], the IC50 was 1 to 5 nM in test [1] and 10 to 50 nM in the test on RT-112/84 cell line (Homo sapiens, RT112/84, 72 h).
The like results for `N#Cc1ccc(Cn2cc(-c3cnc4ccn5c(CO)c(-c6c(Cl)cccc6Cl)nc5c4c3)cn2)cn1` [Example 3, 5-((4-(2-(2,6-Dichlorophenyl)-3-(hydroxymethyl)imidazo[2,1-f][1,6]naphthyridin-9-yl)-1H-pyrazol-1-yl)methyl)picolinonitrile] were, in that order, less than 1 nM and less than 10 nM.
Consider `CC(C)(C#N)n1cc(-c2cnc3ccn4c(CO)c(-c5c(Cl)cccc5Cl)nc4c3c2)cn1` [Example 16, 2-(4-(2-(2,6-Dichlorophenyl)-3-(hydroxymethyl)imidazo[2,1-f][1,6]naphthyridin-9-yl)-1H-pyrazol-1-yl)-2-methylpropanenitrile], for which the IC50 in test [1] was 1 to 5 nM; in the test with RT-112/84 cell line (Homo sapiens, RT112/84, 72 h) it was 10 to 50 nM.
The like results for `OCc1c(-c2c(Cl)cccc2Cl)nc2c3cc(-c4cnn(Cc5ccncn5)c4)cnc3ccn12` [Example 1, (2-(2,6-Dichlorophenyl)-9-(1-(pyrimidin-4-ylmethyl)-1H-pyrazol-4-yl)imidazo[2,1-J][1,6]naphthyridin-3-yl)methanol] were, in that order, 1 to 5 nM and 10 to 50 nM.
Taken in the same sequence, the figures for `CN(C)C(=O)c1ccc(Cn2cc(-c3cnc4ccn5c(CO)c(-c6c(Cl)cccc6Cl)nc5c4c3)cn2)cn1` [Example 12, 5-((4-(2-(2,6-Dichlorophenyl)-3-(hydroxymethyl)imidazo[2,1-f][1,6]naphthyridin-9-yl)-1H-pyrazol-1-yl)methyl)-N,N-dimethylpicolinamide] were less than 1 nM and less than 10 nM.
Turning to `N#Cc1cncc(Cn2cc(-c3cnc4ccn5c(CO)c(-c6c(Cl)cccc6Cl)nc5c4c3)cn2)c1` [Example 2, 5-((4-(2-(2,6-Dichlorophenyl)-3-(hydroxymethyl)imidazo[2,1-f][1,6]naphthyridin-9-yl)-1H-pyrazol-1-yl)methyl)nicotinonitrile], the IC50 in test [1] was less than 1 nM; in the test with RT-112/84 cell line (Homo sapiens, RT112/84, 72 h) it was 10 to 50 nM.
Taken in the same sequence, the figures for `Cc1cccc(Cl)c1-c1nc2c3cc(-c4cnn(C5CCN(C)CC5)c4)cnc3ccn2c1CO` [Example 11, (2-(2-Chloro-6-methylphenyl)-9-(1-(1-methylpiperidin-4-yl)-1H-pyrazol-4-yl)imidazo[2,1-J][1,6]naphthyridin-3-yl)methanol] were 1 to 5 nM and 10 to 50 nM.
Taken in the same sequence, the figures for `O=C(c1ccc(-c2cnc3ccn4c(CO)c(-c5c(Cl)cccc5Cl)nc4c3c2)cc1)N1CCOCC1` [Example 6, (4-(2-(2,6-Dichlorophenyl)-3-(hydroxymethyl)imidazo[2,1-f][1,6]naphthyridin-9-yl)phenyl)(morpholino)methanone] were 1 to 5 nM and 10 to 50 nM.
Taken in the same sequence, the figures for `CS(=O)(=O)CCn1cc(-c2cnc3ccn4c(C(F)F)c(-c5c(Cl)cccc5Cl)nc4c3c2)cn1` [Example 28, 2-(2,6-Dichlorophenyl)-3-(difluoromethyl)-9-(1-(2-(methylsulfonyl)ethyl)-1H-pyrazol-4-yl)imidazo[2,1-f][1,6]naphthyridine] were less than 1 nM and less than 10 nM.
For the compound `Nc1c(-c2c(Cl)cccc2Cl)nc2c3cc(-c4cnn(C5CCOCC5)c4)cnc3ccn12` [Example 35, 2-(2,6-Dichlorophenyl)-9-(1-(tetrahydro-2H-pyran-4-yl)-1H-pyrazol-4-yl)imidazo[2,1-f][1,6]naphthyridin-3-amine], the IC50 is 1 to 5 nM in test [1] and 10 to 50 nM in the test with RT-112/84 cell line (Homo sapiens, RT112/84, 72 h).
The like results for `COCC(=O)N1CCC(n2cc(-c3cnc4ccn5c(CO)c(-c6c(C)cccc6Cl)nc5c4c3)cn2)CC1` [Example 21, 1-(4-(4-(2-(2-Chloro-6-methylphenyl)-3-(hydroxymethyl)imidazo[2,1-f][1,6]naphthyridin-9-yl)-1H-pyrazol-1-yl)piperidin-1-yl)-2-methoxyethan-1-one] were, in that order, 1 to 5 nM and less than 10 nM.
Consider `OCc1c(-c2c(Cl)cccc2Cl)nc2c3cc(-c4cnn(Cc5ccnc(C(F)(F)F)c5)c4)cnc3ccn12` [Example 5, (2-(2,6-Dichlorophenyl)-9-(1-((2-(trifluoromethyl)pyridin-4-yl)methyl)-1H-pyrazol-4-yl)imidazo[2,1-f][1,6]naphthyridin-3-yl)methanol], for which the IC50 is 1 to 5 nM in test [1] and less than 10 nM in the test with RT-112/84 cell line (Homo sapiens, RT112/84, 72 h).
Taken in the same sequence, the figures for `CN(C)C(=O)Cn1cc(-c2cnc3ccn4c(CO)c(-c5c(Cl)cccc5Cl)nc4c3c2)cn1` [Example 19, 2-(4-(2-(2,6-Dichlorophenyl)-3-(hydroxymethyl)imidazo[2,1-f][1,6]naphthyridin-9-yl)-1H-pyrazol-1-yl)-N,N-dimethylacetamide] were 1 to 5 nM and 10 to 50 nM.
The like results for `CCn1cc(-c2cnc3ccn4c(CO)c(-c5c(Cl)cccc5Cl)nc4c3c2)cn1` [Example 15, (2-(2,6-Dichlorophenyl)-9-(1-ethyl-1H-pyrazol-4-yl)imidazo[2,1-f][1,6]naphthyridin-3-yl)methanol] were, in that order, 1 to 5 nM and less than 10 nM.
Taken in the same sequence, the figures for `N#CCn1cc(-c2cnc3ccn4c(C(F)F)c(-c5c(Cl)cccc5Cl)nc4c3c2)cn1` [Example 29, 2-(4-(2-(2,6-Dichlorophenyl)-3-(difluoromethyl)imidazo[2,1-f][1,6]naphthyridin-9-yl)-1H-pyrazol-1-yl)acetonitrile] were less than 1 nM and less than 10 nM.
For `CC(C#N)n1cc(-c2cnc3ccn4c(CO)c(-c5c(Cl)cccc5Cl)nc4c3c2)cn1` (single isomer, unassigned) [17 peak 1], the IC50 in test [1] is less than 1 nM; with RT-112/84 cell line (Homo sapiens, RT112/84, 72 h) it was less than 10 nM.
Taken in the same sequence, the figures for `CC(=O)N1CCC(n2cc(-c3cnc4ccn5c(CO)c(-c6c(Cl)cccc6Cl)nc5c4c3)cn2)CC1` [Example 20, 1-(4-(4-(2-(2,6-Dichlorophenyl)-3-(hydroxymethyl)imidazo[2,1-f][1,6]naphthyridin-9-yl)-1H-pyrazol-1-yl)piperidin-1-yl)ethan-1-one] were less than 1 nM and less than 10 nM.
Taken in the same sequence, the figures for `O=S1(=O)CCCC(n2cc(-c3cnc4ccn5c(CO)c(-c6c(Cl)cccc6Cl)nc5c4c3)cn2)C1` (single isomer, unassigned) [26 peak 1] were 1 to 5 nM and 10 to 50 nM.
As for `CC(C#N)n1cc(-c2cnc3ccn4c(CO)c(-c5c(Cl)cccc5Cl)nc4c3c2)cn1` (single isomer, unassigned) [17 peak 2], the figures for the IC50 (in test [1]; in the test with RT-112/84 cell line) were less than 1 nM and less than 10 nM, respectively.
As to `Cc1cccc(Cl)c1-c1nc2c3cc(-c4cnn(CC(C)(C)O)c4)cnc3ccn2c1CO` [Example 22, 1-(4-(2-(2-Chloro-6-methylphenyl)-3-(hydroxymethyl)imidazo[2,1-f][1,6]naphthyridin-9-yl)-1H-pyrazol-1-yl)-2-methylpropan-2-ol], the IC50 was in the range of 1 to 5 nM in test [1] and 10 to 50 nM with RT-112/84 cell line (Homo sapiens, RT112/84, 72 h).
Turning to `O=S1(=O)CCCC(n2cc(-c3cnc4ccn5c(CO)c(-c6c(Cl)cccc6Cl)nc5c4c3)cn2)C1` (single isomer, unassigned) [26 peak 2], the values for the IC50 (in test [1]; with RT-112/84 cell line) were less than 1 nM and less than 10 nM, respectively.
On to `O=C(CO)N1CCN(Cc2ccc(-c3cnc4ccn5c(CO)c(-c6c(Cl)cccc6Cl)nc5c4c3)cc2)CC1` [Example 8, 1-(4-(4-(2-(2,6-Dichlorophenyl)-3-(hydroxymethyl)imidazo[2,1-f][1,6]naphthyridin-9-yl)benzyl)piperazin-1-yl)-2-hydroxyethan-1-one], for which the IC50 in test [1] lay in the range of 1 to 5 nM; with RT-112/84 cell line (Homo sapiens, RT112/84, 72 h), 10 to 50 nM.
Take `Cc1c(-c2c(Cl)cccc2Cl)nc2c3cc(-c4cnn(C5CN(C(=O)c6nnn(C)n6)C5)c4)cnc3ccn12` [Example 14, (3-(4-(2-(2,6-Dichlorophenyl)-3-methylimidazo[2,1-J][1,6]naphthyridin-9-yl)-1H-pyrazol-1-yl)azetidin-1-yl)(2-methyl-2H-tetrazol-5-yl)methanone]: the IC50 in test [1] lay within 1 to 5 nM; in the test on RT-112/84 cell line (Homo sapiens, RT112/84, 72 h) it was 10 to 50 nM.
The like results for `OCc1c(-c2c(Cl)cccc2Cl)nc2c3cc(-c4cnn(CC5(F)CCOCC5)c4)cnc3ccn12` [Example 25, (2-(2,6-Dichlorophenyl)-9-(1-((4-fluorotetrahydro-2H-pyran-4-yl)methyl)-1H-pyrazol-4-yl)imidazo[2,1-J][1,6]naphthyridin-3-yl)methanol] were, in that order, less than 1 nM and less than 10 nM.
Regarding `CC(C)(C(N)=O)n1cc(-c2cnc3ccn4c(C(F)F)c(-c5c(Cl)cccc5Cl)nc4c3c2)cn1` [Example 33, 2-(4-(2-(2,6-Dichlorophenyl)-3-(difluoromethyl)imidazo[2,1-f][1,6]naphthyridin-9-yl)-1H-pyrazol-1-yl)-2-methylpropanamide], the IC50 in test [1] was less than 1 nM; with RT-112/84 cell line (Homo sapiens, RT112/84, 72 h), less than 10 nM.
Consider `O=C(CO)N1CCN(c2ccc(-c3cnc4ccn5c(CO)c(-c6c(Cl)cccc6Cl)nc5c4c3)cc2)CC1` [Example 10, 1-(4-(4-(2-(2,6-Dichlorophenyl)-3-(hydroxymethyl)imidazo[2,1-f][1,6]naphthyridin-9-yl)phenyl)piperazin-1-yl)-2-hydroxyethan-1-one], for which the IC50 in test [1] was 1 to 5 nM; in the test with RT-112/84 cell line (Homo sapiens, RT112/84, 72 h) it was 10 to 50 nM.
Taken in the same sequence, the figures for `CC(O)Cn1cc(-c2cnc3ccn4c(CO)c(-c5c(Cl)cccc5Cl)nc4c3c2)cn1` (single isomer, unassigned) [18 peak 1] were 1 to 5 nM and 10 to 50 nM.
